# Columns and labels:
# [1] = Phantom (in vitro) MR imaging: T1 and T2 relaxivity; assay type: physicochemical; details: for r1 / r1 with HSA: 37° C.
# Description: Preparation of Samples for Phantom MR Imaging: Samples for phantom imaging experiments contained 50-500 μM complex, 20 mM HEPES and 100 mM NaCl. For samples containing Human Serum Albumin (HSA), 35 mg of HSA was added to these solutions. The pH of all solutions was adjusted to 7.0.
# Phantom (in vitro) imaging at 4.7 T. MRI acquisitions were performed using a General Electric 4.7 T/33 cm horizontal bore magnet (GE NMR instruments, Fremont, Calif.) incorporating AVANCE digital electronics (Bruker BioSpec platform with ParaVision v 3.0.2 acquisition software, Bruker Medical, Billerica, Mass.). […] T1 relaxation rates (r1) were acquired utilizing a saturation recovery, spin-echo (SE) sequence with a fixed echo time (TE), 10 ms and repetition times (TR) ranging from 75 to 8000 ms. Signal intensities at each repetition time were sampled by taking the mean intensity within regions of interest (ROI's) using commercially available image processing software (Analyze 7.0, AnalyzeDirect, Overland, Kans.), and r1 and SMAX were calculated by nonlinear fitting of the equation using Matlab's Curve Fitting Toolbox (Matlab 7.0, MathWorks Inc., Natick, Mass.). The T1 relaxivity for each complex was then determined by obtaining the slope of the compound's molar concentration vs r1 via linear regression fitting of the data. Similarly, T2 relaxation rates (R2) were acquired using a multiecho, Carr-Purcell-Meiboom Gill (CPMG) SE sequence with a fixed TR of 2500 ms and TE times ranging from 15 to 300 ms, NEX) 2. R2 and SMAX were calculated as described above using the equation As before, the T2 relaxivity was determined by obtaining the slope of concentration vs r2 via linear regression fitting of the data.
# Relaxivity values for Fe(TASO) with and without HSA measured at 4.7 T and 9.4 T, pH 7.2 and 37° C. compared to Gd(DTPA).
# [2] = Log P octanol/water partition coefficient; assay type: physicochemical
# [3] = Effective magnetic moment by Evans method; assay type: physicochemical; details: aqueous solution
# Description: Magnetic moments. Samples for studies of magnetic moment by using the Evans method were prepared using a coaxial NMR insert which contained the diamagnetic standard of 5% t-butanol in D2O. The outer 5 mm NMR tube contained 5 mM paramagnetic complex with fixed concentrations; 4 mM, 8 mM, 40 mM, and 70 mM in presence of 5% t-butanol. The effective magnetic moment (μeff, BM) was calculated by using a modified Evans method for small molecules at 298 K (T).
# [4] = Benzoate oxidation in the presence of peroxide and ascorbate (ROS assay); details: 50 μM complex, 50 μM H2O2, 50 μM ascorbate, pH 7.2
# Description: Benzoate oxidation with 50 μM complex, 50 μM H2O2 and 50 μM ascorbate at pH 7.2. [Fe(EDTA)]^− oxidation is set at 100%.
# It is desirable that the Fe(III) complex remain in the trivalent oxidation state and not be reduced by peroxide, superoxide, ascorbate or by glutathione at concentrations present in the extracellular medium of cells such as, for example, mammalian cells (e.g., human cells). Normally, a redox potential more negative than zero mV (<0 mV) versus NHE is sufficient. If the complex were to be reduced to Fe(II) and the Fe(II) complex and the complex has a positive redox potential versus NHE, reactive oxygen species may be produced. For example, [Fe(EDTA)]− has a redox potential of approximately 300 mV and produces ROS as shown by the assay in FIG. 7.
# [5] = versus NHE; cited from earlier work
# [6] = neutral pH, HEPES buffer, 4.7 Tesla MRI scanner
# [7] = with human serum albumin, neutral pH, HEPES buffer, 4.7 Tesla
# [8] = 4.7 T, pH 7.2, 37° C., without HSA
compound,measurement,setting,value
O=P([O-])(O)CN1CCN(CP(=O)([O-])O)CCN(CP(=O)([O-])O)CC1.[Fe+3] [Fe(NOTP)],r1,"[1]; FIG. 11, 4.7 Tesla",0.66 ± 0.01 mM⁻¹ s⁻¹
same,r1 with HSA,"[1]; FIG. 11, with HSA, 4.7 Tesla",1.04 ± 0.06 mM⁻¹ s⁻¹
same,r1,[1]; [6],0.66 mM⁻¹ s⁻¹
same,r1 with HSA,[1]; [7],1.0 mM⁻¹ s⁻¹
same,Log P octanol/water,[2],−2.02±0.30
same,effective magnetic moment μeff,[3],5.85±0.14 BM
O=P([O-])(CN1CCN(CP(=O)([O-])c2ccccc2)CCN(CP(=O)([O-])c2ccccc2)CC1)c1ccccc1.[Fe+3] [Fe(TRAP-Ph)],r1,[1]; [6],2.9 mM⁻¹ s⁻¹
same,r1 with HSA,[1]; [7],3.5 mM⁻¹ s⁻¹
"CNC[C@H](O)[C@@H](O)[C@H](O)[C@H](O)CO.CNC[C@H](O)[C@@H](O)[C@H](O)[C@H](O)CO.O=C([O-])CN(CCN(CC(=O)[O-])CC(=O)O)CCN(CC(=O)[O-])CC(=O)O.[Gd+3] [Gd(DTPA), gadopentetate dimeglumine, reference compound]",r1 4.7 T,[1]; [8],3.1 ± 0.31 mM⁻¹ s⁻¹
same,r2 4.7 T,[1]; [8],3.9 ± 0.39 mM⁻¹ s⁻¹
same,r1 in HSA 4.7 T,"[1]; in HSA, 4.7 T, pH 7.2, 37° C.",3.2 ± 0.32 mM⁻¹ s⁻¹
same,r2 in HSA 4.7 T,"[1]; in HSA, 4.7 T, pH 7.2, 37° C.",4.0 ± 0.40 mM⁻¹ s⁻¹
O=C([O-])CN(CCN(CC(=O)[O-])CC(=O)[O-])CC(=O)[O-].[Fe+3] [[Fe(EDTA)]^−],Benzoate oxidation / ROS production (in words),[4],produces ROS
same,Benzoate oxidation relative to [Fe(EDTA)]−,[4]; reference set at 100%,100%
same,redox potential,[5],approximately 300 mV

# Source: patent publication US11344635B2, “Compounds for use as iron (III) MRI contrast agents containing anionic pendents and ancillary groups” (The Research Foundation for The State University of New York, priority 2018, dated 2022)
